# How the values were obtained:
# [1] = test system: NF-κB; experiment: NF-κB production inhibitory activity, luciferase reporter gene assay; type: cell-based; settings: 3×κBTK-Luc reporter, 2 h preincubation, TNF-α (20 ng/ml) for 6 hours; FIGS. 1(A), 1(B)
# Description: A) NF-κB Production Inhibitory Activity
# The NF-κB production inhibitory activity was measured by luciferase reporter gene assay as shown below.
# [Luciferase Reporter Gene Assay]
# A reporter using luciferase DNA was prepared and the NF-κB production inhibitory activity was measured by use of promoter/reporter assay.
# As the plasmid for luciferase assay, 3×κBTK-Luc (endowed by Dr. Junichiro INOUE of The Institute of Medical Science, The University of Tokyo) obtained by coupling luciferase gene derived from lampyrid to 3×κB derived from Igκ gene and HSV-TK promoter was used. Further, for the β-galactosidase assay, a plasmid obtained by coupling β-galactosidase gene to β-actin promoter (endowed by Dr. Junichiro INOUE of The Institute of Medical Science, The University of Tokyo) was used.
# 2) Transfection and Luciferase Assay
# Transfection was performed by a DEAE-dextran method. […]
# For 10 μl of the sample, 100 μl of a luminescent substrate solution (Tricine (20 mM), (MgCO3).4Mg(OH)2.5H2O (1.07 mM), MgSO4 (2.67 mM), EDTA (0.1 mM), DTT (33.3 mM), Coenzyme A (270 μM), luciferin (470 μM), and ATP (530 μM)) was added and amount of luminescence was quantitated by use of Lumat LB9501 (Berthold: Bad Wildbad, Germany). Further, the measured amounts were corrected by β-galactosidase assay to obtain the value of luciferase activity. […]
# [2] = test system: collagen-induced arthritis; experiment: Collagen-induced arthritis preventing effect; type: in vivo, mouse; settings: mice, intraperitoneal 2 mg/kg or 4 mg/kg, 3 times/week, 18 times/6 weeks; FIGS. 2(A), 2(B)
# Description: B) Collagen-induced Arthritis Preventing Effect
# Type II collagen was emulsified together with an equivalent volume of Freund's complete adjuvant to prepare 1.5 mg/ml of administration solution. This was intradermally inoculated to the radicular portion of mouse tail in an amount of 0.1 ml (150 μg/mouse) to sensitize the mouse. After 3 weeks, 0.1 ml of type II collagen emulsified in the same operational manner as described was intraperitoneally administered to mouse (150 μg/mouse) to effect booster immunization to induce arthritis.
# 6 Animals/group of mice were intraperitoneally administered with DHM2EQ and DHM3EQ in a dosage of 2 mg/kg or 4 mg/kg 3 times/week from the day of initial immunization in a ratio of 0.1 ml/10 g of the bodyweight, in total 18 times/6 weeks. The control group (6 animals/group) was administered with 0.5% CMC solution in the same schedule as described above and to provide normal group (4 animals/group) in which no collagen arthritis was induced. The effect of inhibiting collagen-induced arthritis was evaluated by degrees of the flare, swelling and stiffening of anterior limb and posterior limb in scores of 0 to 4 (the maximum score of total for 4 limbs was 16).
compound,measurement,setting,value
"O=C(NC1=CC(=O)C2OC2C1O)c1ccccc1O (stereo not shown) [DHM2EQ, 5,6-epoxy-4-hydroxy-3-salicyloylamino-2-cyclohexenone]",concentration at which NF-κB activity was inhibited,[1],≥ 1 µg/mL
same,"inhibition of collagen-induced arthritis (score of flare, swelling, stiffening of 4 limbs)",[2],inhibited collagen-induced arthritis
"O=C(NC1=CC(O)C2OC2C1=O)c1ccccc1O (stereo not shown) [DHM3EQ, 5,6-epoxy-4-hydroxy-2-salicyloylamino-2-cyclohexenone]",concentration at which NF-κB activity was inhibited,[1],10 µg/mL
same,"inhibition of collagen-induced arthritis (score of flare, swelling, stiffening of 4 limbs)",[2],inhibited collagen-induced arthritis
